Here are results for 1 compound from US6475991B2, “Use of α-alkylglucosides and α-alkylglucoside esters as anti-microbial an agents” (Ulice, priority 1996, dated 2002).

Holding throughout (type): cell-based
The test system of one assay is Aspergillus niger. Put plainly: Preservative efficacy test (Pharmacopée Française), fungicidal effect on Aspergillus niger. To be noted: concentration of 5%. The method, then:
(§1) The inventors thus tested the bactericidal and/or fungicidal activity of α-alkylglucoside and α-alkylglucoside ester type compounds to determine the conditions, in particular the concentrations, under which said compounds have to be used for the desired activities to be obtained. The results of these tests were analysed in accordance with the “Pharmacopée Françcaise” which describes a methodology for monitoring the efficacy of antimicrobial preservation agents in pharmaceutical preparations and establishes minimum efficacy criteria as a function of the administration routes of a medicine. Thus specific criteria are fixed for topical patent medicines which can be considered to be close to cosmetic products in their conception. The recommended and significant criteria for bactericidal and/or fungicidal activity of a product are:
(§2) for a fungicidal effect (yeasts and moulds) (Candida albicans, Aspergillus niger):
(§3) reduction of one logarithmic unit in 14 days with respect to the initial population;
(§4) no increase in microbial growth after 14 days and up to the 28th day, when the test is stopped.
(§5) In order to facilitate visualisation of the bactericidal or fungicidal effect of the tested compounds, the results obtained were transcribed into the graphical forms of FIG. 5 which show the reduction in the number of germs in logarithmic units, over time (1 day, 7 days, 14 days, 21 days, 28 days).

Assay [1] deals with Staphylococcus aureus, Pseudomonas aeruginosa, Escherichia coli. Put plainly: Preservative efficacy test (Pharmacopée Française), bactericidal effect. The method, then:
as §1
for a bactericidal effect (Staphylococcus aureus, Pseudomonas aeruginosa, Escherichia coli):
reduction of 3 logarithmic units in 14 days with respect to the initial population;
no increase in microbial growth after 14 days and up to the 28th day, when the test is stopped;
as §5

For assay [2], the system named is Candida albicans, Aspergillus niger. Put plainly: Preservative efficacy test (Pharmacopée Française), fungicidal effect (yeasts and moulds). To be noted: concentrations of 1% to 3%. The method, then:
as §1, §2, §3, §4, §5

For `CCCCO[C@H]1O[C@H](CO)[C@@H](O)[C@H](O)[C@H]1O` [α-BG, α-butylglucoside], the “fungicidal activity on Aspergillus niger at 5% versus lower concentrations” value with Aspergillus niger was “less active than at lower concentrations”. Besides, the “compliance with bactericidal standards of the Pharmacopée Française” value in assay [1] (concentrations above 1%) is given as “corresponds to the bactericidal standards”. Also, the “logarithmic reduction (bactericidal effect)” value in assay [1] (concentrations above 1% (1% to 5%), after 14 days) is reported as “more than 3 logarithmic units”. The “increase in the number of strains after 14 days” value in assay [1] (concentrations above 1%, after 14 days) is given as “no subsequent increase in the number of strains”. In assay [1] (concentrations of less than 0.8%), the “reduction in the number of germs” value is “small reduction in the number of germs”. The “compliance with fungicidal standards” value in assay [2] is “satisfy the fungicidal standards”.
